The values below come from patent US6534523B1, “Hepatitis C inhibitor tri-peptides” (Boehringer Ingelheim (Canada) Ltd., priority 1998, dated 2003).

Experiment [1] relates to NS3 protease in Huh-7 cells co-transfected with NS3-NS4A-NS4B-NS5A-tTA and SEAP constructs. The experiment in a line: NS3 protease surrogate cell-based assay (Example 39), SEAP reporter. The following applies: Homo sapiens, SEAP activity, 24-h incubation, read-out: EC50 as determined by the assay of Example 39. An excerpt:
NS3 Protease Cell-based Assay
This assay was done with Huh-7 cells, a human cell line derived from a hepatoma, co-transfected with 2 DNA constructs:
one expressing a polyprotein comprising the HCV non-structural proteins fused to tTA in the following order: NS3-NS4A-NS4B-NS5A-tTA (called NS3);
the other expressing the reporter protein, secreted alkaline phosphatase, under the control of tTA (called SEAP).
The polyprotein must be cleaved by the NS3 protease for the mature proteins to be released. Upon release of the mature proteins, it is believed that the viral proteins will form a complex at the membrane of the endoplasmic reticulum while tTA will migrate to the nucleus and transactivate the SEAP gene. Therefore, reduction of NS3 proteolytic activity should lead to reduction of mature tTA levels and concomitant decrease in SEAP activity.
To control for other effects of the compounds, a parallel transfection was done where a construct expressing tTA alone (called tTA) was co-transfected with the SEAP construct such that SEAP activity is independent of NS3 proteolytic activity. […] After a 24-h incubation period, an aliquot of the medium was drawn and the SEAP activity in this aliquot was measured with the Phospha-Light kit (Tropix). […]

For experiment [2], the target named is T1, human liver cathepsin B (Cat B) (Homo sapiens, UniProt P07858).
T1 construct: from tissue; host or cells: human liver
The experiment in a line: Specificity assay (Example 40), human liver cathepsin B. It counts as biochemical. Here is the method:
The specificity of the compounds was determined against a variety of serine proteases: human leukocyte elastase, porcine pancreatic elastase and bovine pancreatic α-chymotrypsin and one cysteine protease: human liver cathepsin B. In all cases a 96-well plate format protocol using a calorimetric p-nitroaniline (pNA) substrate specific for each enzyme was used. Each assay included a 1 h enzyme-inhibitor pre-incubation at 30° C. followed by addition of substrate and hydrolysis to ≈30% conversion as measured on a UV Thermomax® microplate reader. Substrate concentrations were kept as low as possible compared to KM to reduce substrate competition. Compound concentrations varied from 300 to 0.06 μM depending on their potency.
The final conditions for each assay were as follows:
[100 mM NaHPO4 pH 6, 0.1 mM EDTA, 3% DMSO, 1 mM TCEP, 0.01% Tween-20, 30 μM Z-FR-pNA and 5 nM cathepsin B (the stock enzyme was activated in buffer containing 20 mM TCEP before use)].
The sequential 2-fold dilutions of the inhibitor solution were performed on a separate plate by the liquid handler using 50 mM Tris-HCl pH 8, 50 mM NaCl, 0.1 mM EDTA, 0.02% Tween-20, 15% DMSO. All other specificity assays were performed in a similar fashion.
The percentage of inhibition was calculated using the formula:
[1-((UVinh−UVblank)/(UVctl−UVblank))]×100 […]

A value given as a limit tells only on which side of the number the result lay.

On to `C=C[C@@H]1C[C@]1(NC(=O)[C@@H]1C[C@@H](Oc2cc(-c3ccccc3)nc3cc(OC)ccc23)CN1C(=O)[C@@H](NC(=O)OC(C)(C)C)C(C)C)C(=O)O` [compound 601], for which the concentration for a half-maximal effect (EC50) in experiment [1] turned out to be 8.2 µM. Moreover, the IC50 in experiment [2] is more than 75 µM.
